# Results: ChEMBL document CHEMBL1201862, “PubChem BioAssay data set” (2004)
#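 Each compound was tested at five concentrations against cells in 96-well plates for 48 hours. The concentration for 50% growth inhibition is given as GI50.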 Calls of active or inactive are those of the source. Rule as the data show it: active = GI50 up to about 1.1 µM and inactive = higher.
# Assays:
# Assay in all cases: NCI tumour cell line growth inhibition, 48 h
# [1] = tested on: OVCAR-3
# [2] = tested on: MCF7
# [3] = tested on: TK-10
# [4] = tested on: T47D
# [5] = tested on: SN12C
# [6] = tested on: COLO 205
# [7] = tested on: OVCAR-5
# [8] = tested on: SF-268
# [9] = tested on: EKVX
# [10] = tested on: NCI/ADR-RES
# [11] = tested on: OVCAR-8
# [12] = tested on: HCC 2998
# [13] = tested on: BT-549
# [14] = tested on: MDA-N
SMILES,GI50 [1],GI50 [2],GI50 [3],GI50 [4],GI50 [5],GI50 [6],GI50 [7],GI50 [8],GI50 [9],GI50 [10],GI50 [11],GI50 [12],GI50 [13],GI50 [14]
O=C1CC(c2ccsc2)n2cccc21 (stereo unspecified),> 100 µM (inactive),> 100 µM (inactive),> 100 µM (inactive),> 100 µM (inactive),> 100 µM (inactive),> 100 µM (inactive),> 100 µM (inactive),> 100 µM (inactive),> 100 µM (inactive),> 100 µM (inactive),> 100 µM (inactive),> 100 µM (inactive),,
Cc1cccc(C)c1NC(=O)/C(Cc1nc2ccc([N+](=O)[O-])cc2nc1O)=N\NC(N)=O,> 100 µM (inactive),63.1 µM (inactive),> 100 µM (inactive),> 100 µM (inactive),> 100 µM (inactive),38.9 µM (inactive),> 100 µM (inactive),> 100 µM (inactive),64.6 µM (inactive),85.5 µM (inactive),> 100 µM (inactive),> 100 µM (inactive),7.19 µM (inactive),
O=C1CCCN1C(=O)CS(=O)(=O)c1ccccc1,> 100 µM (inactive),,> 100 µM (inactive),> 100 µM (inactive),> 100 µM (inactive),> 100 µM (inactive),> 100 µM (inactive),> 100 µM (inactive),,> 100 µM (inactive),> 100 µM (inactive),> 100 µM (inactive),> 100 µM (inactive),> 100 µM (inactive)
CSc1nn(C)cc2ncnc1-2,> 100 µM (inactive),> 100 µM (inactive),> 100 µM (inactive),> 100 µM (inactive),> 100 µM (inactive),> 100 µM (inactive),> 100 µM (inactive),> 100 µM (inactive),> 100 µM (inactive),> 100 µM (inactive),> 100 µM (inactive),,> 100 µM (inactive),> 100 µM (inactive)
N#CC1=C(N)OC(c2cccc([N+](=O)[O-])c2)C1(C#N)C#N (stereo unspecified),,20.8 µM (inactive),19.1 µM (inactive),17.4 µM (inactive),33.2 µM (inactive),17 µM (inactive),20.6 µM (inactive),26.5 µM (inactive),22.1 µM (inactive),34.3 µM (inactive),29.4 µM (inactive),20.9 µM (inactive),,23.9 µM (inactive)
COc1c(Cl)nc2ccccc2c1N=[N+]=[N-],> 100 µM (inactive),> 100 µM (inactive),70 µM (inactive),85.7 µM (inactive),92 µM (inactive),> 100 µM (inactive),> 100 µM (inactive),28.7 µM (inactive),,,,> 100 µM (inactive),19.8 µM (inactive),> 100 µM (inactive)
CC(C)[Si](OC1=C(C(=O)N(C)c2cccc(Cl)c2)CCCC1)(C(C)C)C(C)C,14 µM (inactive),12.3 µM (inactive),15.4 µM (inactive),2.91 µM (inactive),,15.1 µM (inactive),10.1 µM (inactive),13.3 µM (inactive),15.6 µM (inactive),12.6 µM (inactive),16.8 µM (inactive),17 µM (inactive),,17.4 µM (inactive)
NC(=O)CC(N)C(=O)NC(Cc1ccccc1)C(=O)NC(Cc1ccccc1)NC(=O)C(Cc1c[nH]c2ccccc12)C(=O)O (stereo unspecified),> 100 µM (inactive),> 100 µM (inactive),> 100 µM (inactive),> 100 µM (inactive),> 100 µM (inactive),> 100 µM (inactive),> 100 µM (inactive),> 100 µM (inactive),> 100 µM (inactive),> 100 µM (inactive),> 100 µM (inactive),> 100 µM (inactive),,
Cc1cn(C2CC(O)C(COC(=O)NCCC(F)(F)C(F)(F)C(F)(F)C(F)(F)F)O2)c(=O)[nH]c1=O (stereo unspecified),> 100 µM (inactive),> 100 µM (inactive),> 100 µM (inactive),> 100 µM (inactive),> 100 µM (inactive),> 100 µM (inactive),> 100 µM (inactive),> 100 µM (inactive),> 100 µM (inactive),,> 100 µM (inactive),> 100 µM (inactive),> 100 µM (inactive),86.3 µM (inactive)
Cc1noc(/N=C2\C=C(O)C(=O)c3ccccc32)c1C,4.31 µM (inactive),0.495 µM (active),> 100 µM (inactive),33.3 µM (inactive),0.918 µM (active),31.5 µM (inactive),9.27 µM (inactive),16.9 µM (inactive),37.8 µM (inactive),0.505 µM (active),7.38 µM (inactive),,1.05 µM (active),0.173 µM (active)
COc1cc2nc(-c3cccs3)[nH]c(=O)c2cc1OC,> 100 µM (inactive),> 100 µM (inactive),> 100 µM (inactive),> 100 µM (inactive),> 100 µM (inactive),> 100 µM (inactive),28.6 µM (inactive),> 100 µM (inactive),> 100 µM (inactive),> 100 µM (inactive),> 100 µM (inactive),,> 100 µM (inactive),
COc1ccc(-c2c(C#N)c(-c3ccc(C)cc3)n(NS(=O)(=O)c3ccc(C)cc3)c(=O)c2C#N)cc1,,24.5 µM (inactive),87.3 µM (inactive),,66.2 µM (inactive),90.2 µM (inactive),> 100 µM (inactive),56.6 µM (inactive),53.5 µM (inactive),53.7 µM (inactive),72.3 µM (inactive),62.1 µM (inactive),33.9 µM (inactive),75 µM (inactive)
C=C(C)CCC1CC=[N+]([O-])OC1C(C)(C)C (stereo unspecified),66.1 µM (inactive),15.5 µM (inactive),> 100 µM (inactive),20.7 µM (inactive),49.4 µM (inactive),40.1 µM (inactive),> 100 µM (inactive),58.9 µM (inactive),68.2 µM (inactive),27.3 µM (inactive),66.5 µM (inactive),> 100 µM (inactive),,42.3 µM (inactive)
COc1cc([N+](=O)[O-])ccc1NC(=O)C(F)(F)F,> 100 µM (inactive),> 100 µM (inactive),> 100 µM (inactive),97.7 µM (inactive),> 100 µM (inactive),> 100 µM (inactive),> 100 µM (inactive),> 100 µM (inactive),> 100 µM (inactive),> 100 µM (inactive),> 100 µM (inactive),,> 100 µM (inactive),> 100 µM (inactive)
CCCCSCc1nc2nc(Cl)c(Cl)nc2[nH]1,12.4 µM (inactive),23.6 µM (inactive),27.9 µM (inactive),15.7 µM (inactive),22.1 µM (inactive),21.3 µM (inactive),30.9 µM (inactive),35.6 µM (inactive),33.3 µM (inactive),27 µM (inactive),34.9 µM (inactive),,27.1 µM (inactive),25.1 µM (inactive)
CCCC(=O)Oc1cc(OC(=O)CCC)c2c(C)cc(=O)oc2c1,50 µM (inactive),54.5 µM (inactive),> 100 µM (inactive),,> 100 µM (inactive),40 µM (inactive),> 100 µM (inactive),> 100 µM (inactive),> 100 µM (inactive),> 100 µM (inactive),75.7 µM (inactive),,,62.2 µM (inactive)
COc1cc(C=O)ccc1Oc1nnnn1-c1ccccc1,45.7 µM (inactive),,> 100 µM (inactive),16.5 µM (inactive),> 100 µM (inactive),> 100 µM (inactive),> 100 µM (inactive),42.7 µM (inactive),> 100 µM (inactive),38.5 µM (inactive),66.2 µM (inactive),,66.2 µM (inactive),37.8 µM (inactive)
COC(=O)CP1(=O)OC2C(C3CCC2(C)C3(C)C)N1c1cc(C(F)(F)F)cc(C(F)(F)F)c1 (stereo unspecified),15.2 µM (inactive),> 100 µM (inactive),24.7 µM (inactive),19.1 µM (inactive),,24 µM (inactive),25.3 µM (inactive),23 µM (inactive),30.5 µM (inactive),20.6 µM (inactive),36.1 µM (inactive),22.9 µM (inactive),27.2 µM (inactive),
CCOC(=O)[C@@]12CCC(C1=O)[C@](C)(O)C[C@@H]2c1ccccc1,28.2 µM (inactive),,> 100 µM (inactive),39 µM (inactive),24.8 µM (inactive),44.4 µM (inactive),80.9 µM (inactive),36.2 µM (inactive),57.1 µM (inactive),29 µM (inactive),54.8 µM (inactive),,58.5 µM (inactive),3.86 µM (inactive)
COc1ccc(CCCNC(=O)Cc2ccccc2CO)cc1OC,> 100 µM (inactive),,> 100 µM (inactive),> 100 µM (inactive),> 100 µM (inactive),> 100 µM (inactive),> 100 µM (inactive),,> 100 µM (inactive),> 100 µM (inactive),> 100 µM (inactive),> 100 µM (inactive),> 100 µM (inactive),> 100 µM (inactive)
Cc1cccc(CC(Cc2c(C)cccc2C(=O)O)C(=O)O)c1 (stereo unspecified),> 100 µM (inactive),> 100 µM (inactive),> 100 µM (inactive),,> 100 µM (inactive),> 100 µM (inactive),> 100 µM (inactive),> 100 µM (inactive),> 100 µM (inactive),> 100 µM (inactive),> 100 µM (inactive),67.6 µM (inactive),> 100 µM (inactive),> 100 µM (inactive)
CN(Cc1cnc2c(N)nc(N)nc2n1)c1ccc(Cl)cc1,> 100 µM (inactive),95.5 µM (inactive),38.7 µM (inactive),52.5 µM (inactive),> 100 µM (inactive),> 100 µM (inactive),> 100 µM (inactive),33.6 µM (inactive),> 100 µM (inactive),16.2 µM (inactive),21.5 µM (inactive),,> 100 µM (inactive),> 100 µM (inactive)
